According to US20160320368A1, “METHOD AND APPARATUS FOR PREDICTING EFFECTIVE DOSE OR SENSITIVITY OF 5-HYDROXY-1H-IMIDAZOLE-4-CARBOXAMIDE, METHOD FOR DETERMINING AMOUNT OF XANTHOSINE MONOPHOSPHATE, AND TREATMENT AGENT AND METHOD FOR TREATING MYELODYSPLASTIC SYNDROME” (FUJIFILM Corporation, priority 2014, published 2016):
Read-outs that look alike come from different tables or passages of the source.

What was measured:
[1] = system: XMP in human myeloid leukemia cells K562; assay: XMP in human myeloid leukemia cells K562 (LC-MS/MS); assay type: cell-based; settings: 24 hours, non-treated = 100%
Protocol: A ¾ hydrate of Compound A was used as a test compound.
K562 (available from Riken BioResource Center) was used as a human myeloid leukemia cell.
2×10^7 human myeloid leukemia cells were suspended in a culture flask containing 18 mL of an RPMI1640 medium (manufactured by Life Technologies, Inc.). 2 mL of a PBS solution of the test compound (0 μg/mL, 10 μg/mL, 100 μg/mL, or 1000 μg/mL in terms of Compound A) was added to the flask which was then incubated at 37° C. under 5% CO2 for 24 hours. After centrifugation at 20° C. and 300×g for 3 min, the supernatant was removed and suspended in 10 mL of a PBS solution. Then, after centrifugation at 4° C. and 300×g for 5 min, the supernatant was removed. After stirring with addition of 1000 μL of methanol, 500 μL of ultrapure water was added thereto, followed by further stirring. 600 μL of the reaction solution was divided into each of two tubes, and 400 μL of chloroform was added to each tube. The reaction solution was stirred and then centrifuged at 4° C. and 10000×g for 15 min. 400 μL of the aqueous phase was recovered and added to an ultrafiltration tube, followed by centrifugation at 12° C. and 9200×g for 2 hours. The filtrates were combined and then dried under reduced pressure at 40° C. for 2 hours by using a centrifugal evaporator. After drying, the resulting product was stored in a freezer at −80° C.
(§1) The samples stored in (1) and (2) were returned to room temperature and 40 μL of ultrapure water was added to each sample. The mixture was stirred and centrifuged at 4° C. and 21500×g for 5 min. 35 μL of the supernatant was transferred to a vial. After storage at 4° C., XMP in samples was determined in the LC-MS/MS determination instrument, LC conditions and MS/MS conditions described in Example 3 (3).
Amounts of XMP (%) were calculated assuming that the XMP value of a non-Compound A treated group (peak area value) is defined as 100%.

XMP in whole blood = XMP in whole blood (Example 5); assay type: cell-based, human; settings: 37° C., 8 hours, non-treated = 100%
Protocol: (§2) A ¾ hydrate of Compound A was used s a test compound.
(§3) 450 μL of the blood collected from two healthy individuals by heparinized blood collection (Analyte A and Analyte B) was added to each tube, and 50 μL of a PBS solution of the test compound (0 μg/mL, 10 μg/mL, 30 μg/mL, 100 μg/mL, 300 μg/mL, or 1000 μg/mL in terms of Compound A) for each concentration was added to each tube. The reaction mixture was stirred in an incubator at 37° C. for 8 hours.
400 μL of methanol was added to 100 μL of the blood sample obtained in (1). After stirring, 400 μL of chloroform was added, followed by further stirring. 120 μL of ultrapure water was added thereto, followed by stirring and then centrifugation at 4° C. and 10000×g for 15 min. 400 μL of the aqueous phase was recovered and added to an ultrafiltration tube, followed by centrifugation at 12° C. and 9200×g for 2 hours. The filtrate was dried under reduced pressure at 40° C. for 2 hours by using a centrifugal evaporator. After drying, the resulting product was stored in a freezer at −80° C.
as §1, with “obtained” for “stored”, “(2-1)” for “(1)”, “(2-2)” for “(2)”
(§4) Amounts of XMP (%) were calculated assuming that amounts of XMP in a non-Compound A treated group are defined as 100%.

[2] = system: XMP in blood cells after hemolysis; assay: XMP in blood cells after hemolysis (Example 5); assay type: cell-based; settings: Homo sapiens, 37° C., 8 hours, non-treated = 100%; for XMP amount (% of non-treated) at 1 µg/mL: Compound A 1 μg/mL; for XMP amount (% of non-treated) at 3 µg/mL: Compound A 3 μg/mL; for XMP amount (% of non-treated) at 10 µg/mL: Compound A 10 μg/mL; for XMP amount (% of non-treated) at 30 µg/mL: Compound A 30 μg/mL; for XMP amount (% of non-treated) at 100 µg/mL: Compound A 100 μg/mL
Protocol: as §2, §3
BD Pharm Lyse (555899, manufactured by Becton, Dickinson and Company, Inc.) was added to the blood sample obtained in (1) (2 mL of BD Pharm Lyse was added relative to 0.2 mL of blood). After stirring with a vortex mixer, the reaction solution was protected from light and allowed to stand at room temperature for 15 min. After centrifugation at 20° C. and 1000×g for 5 min, the supernatant was removed and suspended in 10 mL of PBS. After centrifugation at 4° C. and 1000×g for 5 min, the supernatant was removed, and 1000 μL of methanol was added to each tube, followed by stirring. Thereafter, 500 μL of ultrapure water was added thereto, followed by further stirring. 600 μL of the reaction solution was divided into each of two tubes, and 400 μL of chloroform was added to each tube. The reaction solution was stirred and then centrifuged at 4° C. and 10000×g for 15 min. 400 μL of the aqueous phase was recovered and added to an ultrafiltration tube (UltrafreeMC-PLHCC 250/pk for Metabolome Analysis (manufactured by Human Metabolome Technologies)), followed by centrifugation at 12° C. and 9200×g for 2 hours. The filtrates were combined and then dried under reduced pressure at 40° C. for 2 hours by using a centrifugal evaporator. After drying, the resulting product was stored in a freezer at −80° C.
as §1, with “obtained” for “stored”, “(2-1)” for “(1)”, “(2-2)” for “(2)”
as §4

[3] = read-out: Amount of XMP (%) Analyte A Hemolysis
[4] = read-out: Amount of XMP (%) Analyte B Hemolysis

NC(=O)c1nc[nH]c1O [Compound A, 5-Hydroxy-1H-imidazole-4-carboxamide]
Amount of XMP (%) K562 ([1]; Compound A 1 μg/mL): 52% | Amount of XMP (%) K562 ([1]; Compound A 10 μg/mL): 15% | Amount of XMP (%) K562 ([1]; Compound A 100 μg/mL): 6% | Amount of XMP (%) Analyte A Whole blood (XMP in whole blood; Compound A 1 μg/mL): 57% | Amount of XMP (%) Analyte B Whole blood (XMP in whole blood; Compound A 1 μg/mL): 44% | Amount of XMP (%) Analyte A Whole blood (XMP in whole blood; Compound A 3 μg/mL): 53% | Amount of XMP (%) Analyte B Whole blood (XMP in whole blood; Compound A 3 μg/mL): 27% | Amount of XMP (%) Analyte A Whole blood (XMP in whole blood; Compound A 10 μg/mL): 47% | Amount of XMP (%) Analyte B Whole blood (XMP in whole blood; Compound A 10 μg/mL): 15% | Amount of XMP (%) Analyte A Whole blood (XMP in whole blood; Compound A 30 μg/mL): 26% | Amount of XMP (%) Analyte B Whole blood (XMP in whole blood; Compound A 30 μg/mL): 11% | Amount of XMP (%) Analyte A Whole blood (XMP in whole blood; Compound A 100 μg/mL): 15% | Amount of XMP (%) Analyte B Whole blood (XMP in whole blood; Compound A 100 μg/mL): 9% | XMP amount (% of non-treated) at 1 µg/mL [2, 3]: 60% | XMP amount (% of non-treated) at 1 µg/mL [2, 4]: 51% | XMP amount (% of non-treated) at 3 µg/mL [2, 3]: 45% | XMP amount (% of non-treated) at 3 µg/mL [2, 4]: 37% | XMP amount (% of non-treated) at 10 µg/mL [2, 3]: 37% | XMP amount (% of non-treated) at 10 µg/mL [2, 4]: 25% | XMP amount (% of non-treated) at 30 µg/mL [2, 3]: 27% | XMP amount (% of non-treated) at 30 µg/mL [2, 4]: 18% | XMP amount (% of non-treated) at 100 µg/mL [2, 3]: 16% | XMP amount (% of non-treated) at 100 µg/mL [2, 4]: 10%
